The text below walks through data of patent publication US9199862B2, “Method for adsorbing fluorocarboxylic acid having ether bond and method for collecting same” (DAIKIN INDUSTRIES, LTD., priority 2009, dated 2015).

The conditions of data set [1]: normal temperature; cited from earlier work.
The nature of data set [2]: solubility in water. Type of data set: physicochemical. As to conditions: normal temperature. The source says: A fluorocarboxylic acid having an ether bond, for example, 2,3,3,3-tetrafluoro-2-[1,1,2,3,3,3-hexafluoro-2-(trifluoromethoxy)propoxy]-propanoic acid has a solubility in water of about 10% at normal temperature, which is about 50 times of the solubility of perfluorooctanoic acid (PFOA) in water. Therefore, the adsorption rate of general active carbon, for example, general-purpose active carbon for waste water which was conventionally used is 5% or less at normal temperature and pH 7.

Data set [3] is described as follows: adsorption and desorption by heating the active carbon in a dryer at 99° C. (Example 3). As to conditions: Tables 3 and 4, 99° C. for 48 hours. Format: physicochemical. How it is done:
An active carbon (Specific surface area: 500-2,000 m^2/g) (0.1 g), to which 2,3,3,3-tetrafluoro-2-[1,1,2,3,3,3-hexafluoro-2-(trifluoromethoxy)propoxy]-propanoic acid was adsorbed until reaching the breakthrough point, was charged into a dryer and left at a temperature of 99° C. for 48 hours. The desorption amount was taken as the same as an adsorption amount in adsorption again after the desorption.

Turning to `O=C(O)C(F)(OC(F)(F)C(F)(OC(F)(F)F)C(F)(F)F)C(F)(F)F` (stereo not drawn) [2,3,3,3-tetrafluoro-2-[1,1,2,3,3,3-hexafluoro-2-(trifluoromethoxy)propoxy]-propanoic acid], the solubility in water entry in data set [1] is “about 10%”. The “solubility in water relative to perfluorooctanoic acid (PFOA)” value in data set [2] is “about 50 times”. In data set [3], the “desorption compared with perfluorohexanoic acid” value is “higher desorption”.
